Measurements reported in article PMC10510108, “Studies Pertaining to the Emerging Cannabinoid Hexahydrocannabinol (HHC)” (ACS Chemical Biology, 2023).
Entries after “also recorded” stand apart in the source; their conditions may differ. Read-outs that look alike come from different tables or passages of the source.

Columns and labels:
[1] = target: T1, human CB1 cannabinoid receptor (Homo sapiens, UniProt P21554); test: biochemical; type: binding; conditions: for nH (Hill coefficient) / Top (% inhibition of control specific binding): SI; for nH (Hill coefficient): competition curve fit; for Top (% inhibition of control specific binding): four parameter curve fit
T1 construct: host or cells: Chem-1 cells

[2] = target: T2, human CB2 cannabinoid receptor (Homo sapiens, UniProt P34972); test: biochemical; type: binding; conditions: for nH (Hill coefficient): competition curve fit; for Top (% inhibition of control specific binding): four parameter curve fit
T2 construct: host or cells: CHO cells

human CB1 receptor = target: T3, human CB1 receptor (Homo sapiens, UniProt P21554); test: cell-based; conditions: for EC50: cAMP HTRF, transfected CHO cells, two replicate experiments, error = standard deviation
T3 construct: host or cells: CHO cells

human CB2 receptor = target: T4, human CB2 receptor (Homo sapiens, UniProt P34972); test: cell-based; conditions: for EC50: cAMP HTRF, transfected CHO cells, two replicate experiments, error = standard deviation
T4 construct: host or cells: CHO cells

[3] = [3H]WIN 55212-2 displacement, transfected CHO cell lysate, two replicate experiments, error = standard deviation, read-out: Ki (CB2)

T3 sequence (P21554 whole entry): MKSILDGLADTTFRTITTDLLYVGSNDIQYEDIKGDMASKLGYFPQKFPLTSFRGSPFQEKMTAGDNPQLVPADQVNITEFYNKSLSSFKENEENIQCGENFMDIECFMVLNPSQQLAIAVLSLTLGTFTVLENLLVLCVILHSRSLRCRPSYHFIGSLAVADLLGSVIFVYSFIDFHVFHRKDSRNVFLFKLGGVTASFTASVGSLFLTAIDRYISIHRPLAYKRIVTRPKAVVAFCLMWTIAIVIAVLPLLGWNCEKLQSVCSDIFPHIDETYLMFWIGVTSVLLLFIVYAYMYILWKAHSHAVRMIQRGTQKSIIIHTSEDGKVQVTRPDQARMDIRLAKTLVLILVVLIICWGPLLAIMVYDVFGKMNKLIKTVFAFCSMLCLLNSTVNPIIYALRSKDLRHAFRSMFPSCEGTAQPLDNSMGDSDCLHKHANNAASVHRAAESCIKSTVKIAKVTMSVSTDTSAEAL
T1 sequence (P21554 whole entry): as above
T2 sequence (P34972 whole entry): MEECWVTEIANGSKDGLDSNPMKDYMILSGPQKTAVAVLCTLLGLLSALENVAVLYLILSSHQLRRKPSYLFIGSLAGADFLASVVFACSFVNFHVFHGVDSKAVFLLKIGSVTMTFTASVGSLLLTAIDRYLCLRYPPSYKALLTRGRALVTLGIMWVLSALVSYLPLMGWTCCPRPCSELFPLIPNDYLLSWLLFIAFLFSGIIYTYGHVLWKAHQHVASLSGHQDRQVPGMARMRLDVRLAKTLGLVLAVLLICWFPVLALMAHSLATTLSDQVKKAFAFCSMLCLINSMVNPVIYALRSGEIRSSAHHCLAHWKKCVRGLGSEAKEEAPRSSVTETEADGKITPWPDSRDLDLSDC
T4 sequence (P34972 whole entry): as above

Structure (SMILES) | % inhibition of control specific binding ([1]; Log[M] –5.48, 1st replicate) [%] | % inhibition of control specific binding ([1]; Log[M] –5.48, 2nd replicate) [%] | % inhibition of control specific binding ([1]; Log[M] –6.43, 1st replicate) [%] | % inhibition of control specific binding ([1]; Log[M] –6.43, 2nd replicate) [%] | % inhibition of control specific binding ([1]; Log[M] –6.91, 1st replicate) [%] | % inhibition of control specific binding ([1]; Log[M] –6.91, 2nd replicate) [%] | % inhibition of control specific binding ([1]; Log[M] –7.39, 1st replicate) | % inhibition of control specific binding ([2]; Log[M] –5.48, 1st replicate) [%] | % inhibition of control specific binding ([2]; Log[M] –5.48, 2nd replicate) [%] | % inhibition of control specific binding ([2]; Log[M] –6.43, 1st replicate) [%] | % inhibition of control specific binding ([2]; Log[M] –6.43, 2nd replicate) [%] | % inhibition of control specific binding ([2]; Log[M] –6.91, 1st replicate) [%] | % inhibition of control specific binding ([2]; Log[M] –6.91, 2nd replicate) [%] | % inhibition of control specific binding ([2]; Log[M] –7.39, 1st replicate) [%] | % inhibition of control specific binding ([2]; Log[M] –7.39, 2nd replicate) [%] | % inhibition of control specific binding ([2]; Log[M] –7.86, 1st replicate) [%] | % inhibition of control specific binding ([2]; Log[M] –7.86, 2nd replicate) [%] | nH (Hill coefficient) ([2]; SI) | Top (% inhibition of control specific binding) ([2]; SI) | agonist character at CB2 (human CB2 receptor; functional assay) | also measured
CCCCCc1cc(O)c2c(c1)OC(C)(C)[C@@H]1CC[C@@H](C)C[C@@H]21 [4a, (9R)-HHC] | 112.10 | 113.60 | 95.20 | 100.00 | 82.50 | 83.30 | 50.10% | 98.00 | 97.20 | 96.90 | 93.60 | 86.90 | 84.70 | 64.90 | 67.50 | 47.90 | 41.40 | 1.1 | 99 | partial agonists; also recorded: partial CB1 and CB2 receptor agonist activity | Ki [1]: 15 nM; % inhibition of control specific binding ([1]; Log[M] –7.39, 2nd replicate): 52.90%; % inhibition of control specific binding ([1]; Log[M] –7.86, 1st replicate): 27.40%; % inhibition of control specific binding ([1]; Log[M] –7.86, 2nd replicate): 29.00%; nH (Hill coefficient) [1]: 1.1; Top (% inhibition of control specific binding) [1]: 111; selectivity for CB2 (radioligand binding) [2]: 1.2 x; Ki [2, 3]: 13 nM; selectivity for CB1 (functional assay) (human CB1 receptor): 1.8 x; EC50 (human CB1 receptor): 3.4 nM; agonist character at CB1 (human CB1 receptor; functional assay): partial agonists; also recorded: partial CB1 and CB2 receptor agonist activity; increase in potency compared to 4b, CB1 (human CB1 receptor; functional assay): 17 fold; selectivity for CB2 (functional activity) (human CB2 receptor): 0.55 x; EC50 (human CB2 receptor): 6.2 nM; increase in potency compared to 4b, CB2 (human CB2 receptor; functional assay): 9 fold
CCCCCc1cc(O)c2c(c1)OC(C)(C)[C@@H]1CC[C@H](C)C[C@@H]21 [4b, (9S)-HHC] | 88.80 | 95.80 | 35.70 | 35.70 | 8.70 | 5.50 | –4.50% | 88.30 | 88.00 | 62.60 | 61.40 | 41.60 | 41.40 | 15.80 | 16.00 | 4.40 | 6.70 | 0.7 | 102 | partial agonists; also recorded: partial CB1 and CB2 receptor agonist activity | % inhibition of control specific binding ([1]; Log[M] –7.39, 2nd replicate): 0.20%; % inhibition of control specific binding ([1]; Log[M] –7.86, 1st replicate): –9.00%; % inhibition of control specific binding ([1]; Log[M] –7.86, 2nd replicate): –6.10%; nH (Hill coefficient) [1]: 1.1; Top (% inhibition of control specific binding) [1]: 106; Ki ([1]; [3H]CP 55940 displacement, transfected Chem-1 cell lysate, two replicate experiments, error = standard deviation, read-out: Ki (CB1)): 176 nM; Ki ([2]; SI, curve fitted to mean replicate values, Cheng Prusoff, read-out: Ki): 110 nM; Ki [2, 3]: 105 nM; selectivity for CB2 (radioligand binding) ([2]; from Ki at CB1 and CB2): 1.7 x; selectivity for CB1 (functional assay) (human CB1 receptor; CB1 versus CB2, from EC50): no significant selectivity; EC50 (human CB1 receptor): 57 nM; agonist character at CB1 (human CB1 receptor; functional assay): partial agonists; also recorded: partial CB1 and CB2 receptor agonist activity; EC50 (human CB2 receptor): 56 nM; selectivity for CB2 (functional activity) (human CB2 receptor; from EC50 at CB1 and CB2): 1.0 x
CCCCCc1cc(O)c2c(c1)OC(C)(C)[C@@H]1CCC(C)=C[C@@H]21 [compound 1, Δ^9-trans-tetrahydrocannabinol, reference compound] |  |  |  |  |  |  |  | 97.00 | 96.20 | 98.10 | 98.20 | 88.60 | 89.90 | 74.30 | 67.60 | 50.30 | 51.20 | 1.0 | 100 | partial agonists; also recorded: partial CB1 and CB2 receptor agonist activity | 
